Patent US20150231149A1, “SPERM FUNCTION/ACTIVITY” (University of Dundee, priority 2011, published 2015)
Structures can show the parent of a compound that is named as a salt.

Columns and labels:
human sperm motility = assay: Sperm motility assessment by CASA after PDEi treatment (screening of 43 PDEi); assay type: cell-based; settings: for Effect on Sperm Motility: Mild / Effect on Sperm Motility: Strong: X or (X) marks the class, PDEi tested blinded at 1, 10 and 100 μM, 20 min at 37° C., CASA
Protocol: Almost all phosphodiesterase inhibitors (PDEi) were purchased from Tocris Bioscience (Bristol, UK) and the other inhibitors from Sigma-Aldrich (Dorset, UK) or Santa Cruz Biotechnology (Heidelberg, Germany) by the Drug Discovery Unit (DDU) at the College Life Sciences (University of Dundee, UK) as shown in Table 1. The DDU coded the PDEi upon arrival and the coded samples were tested for sperm function with a primary focus on sperm motility. All 43 PDEi were analyzed blinded with three independent times for quantitative sperm motility using three different final concentrations (1, 10 and 100 μM).
All chemicals were purchased from Sigma-Aldrich. Two different media were used 1-medium not supporting sperm capacitation NCM: 1.8 mM CaCl2, 5.4 mM KCl, 0.8 mM MgSO4.7H2O, 116.3 mM NaCl, 1.0 mM NaH2PO4, 5.55 mM D-glucose, 2.73 mM sodium pyruvate, 41.75 mM sodium lactate, 25 mM HEPES and 2-supporting capacitation CM: 1.8 mM CaCl2, 5.4 mM KCl, 0.8 mM MgSO4.7H2O, 116.3 mM NaCl, 1.0 mM NaH2PO4, 5.55 mM D-glucose, 2.73 mM sodium pyruvate, 25 mM sodium lactate, 26 mM sodium bicarbonate. Semen samples were obtained from healthy donors (normozoospermic) and samples were produced by masturbation into a sterile plastic container after 2-3 days of sexual abstinence. Two different sperm populations were isolated from the semen using a 40-80% discontinuous density gradient procedure. Briefly, 1 ml of semen was loaded after 30 min of liquefaction at 37° C. on the top of a colloidal silica suspension (Pure Sperm™, Nidacon, Mölndal, Sweden) made of 80% and 40% layered (2 ml each). The density gradient was centrifuged at 300×g for 20 min at room temperature. The motile population was found at the bottom of the 80% fraction and the poor motility population was recovered at the interface of 40-80%, respectively called 80% and 40% fraction. Both fractions were washed using a NCM, cells were isolated by a centrifugation for 5 min at 500×g and the sperm pellet was rediluted using a NCM or CM at ˜20-25×10^6 cells/ml. Sperm cells from 3-4 different donors were pooled together after sperm preparation in order to obtain enough cells to screen 4-5 PDEi at the same time and additionally to reduced the variability. The first screening was performed with a NCM because it is the conditions normally used in clinic for intrauterine insemination (IUI). Accordingly, NCM is recommended to prevent capacitation before IUI (Björndahl et al., 2010)
Following isolation, sperm were mixed with DMSO (vehicle; 1% final concentration) or PDEi [all inhibitors were reconstituted into 1% DMSO]. Sperm cells were incubated for 20 min at 37° C. and the sperm motility was evaluated by using a Computer-Assisted-Sperm-Analysis (CASA, Ceros system [version 12]; Hamilton Thorne, Beverly, Mass.) and 4 chamber slides […] (Vitrolife, Sweden). Sperm motility was evaluated from 4 samples per treatment and at least 2,000 sperm cells were analyzed in total (see below). The setting of the CASA used was that established by the manufacturer for human spermatozoa.

[1] = tested on: poor sperm motility population; assay: Sperm penetration assay in 1% methyl cellulose; assay type: cell-based, human; settings: PDEi 100 μM, 20 minutes, scored at 1 cm distance, n=6 (FIG. 4)
Protocol: Methyl cellulose (1% concentration) was used to mimic cervical mucus viscosity and act as a sperm function test (Ivic et al., 2002). Sperm cells were previously treated with PDEi as described above. Glass tubes (5 cm×0.8 cm×2 mm; Vitrocom, NJ, USA) were loaded with methyl cellulose by capillary action (4,000 Sigma M-) prepared in NCM and one extremity was sealed with Cristaseal™ (Hawksley, Sussex, UK). The tubes was incubated with the sperm cells at 37° C. for 1 h 15 min, then the other extremity of the tube was sealed and the number of sperm cells scored at 1 cm and 2 cm using the CASA equipped with a 20× objective magnification. The microscope was adjusted to get the right focus manually at all planes to get the sum of the sperm migrated at this distance. The results are expressed as a penetration index calculated as the number of spermatozoa observed at the site of counting with treatment/the number of spermatozoa without treatment. The speed of sperm population at the migration distance was also analyzed.

| Compound | enhancement of sperm motility in a viscous solution (sperm penetration assay) [1] | Effect on Sperm Motility: Mild (human sperm motility) | further results |
| --- | --- | --- | --- |
| COc1ccc(Cc2nccc3cc(OC)c(OC)cc23)cc1OC [Papaverine] | best PDEI's to enhance sperm motility in a viscous solution | – | effect upon sperm motility (human sperm motility): greater than expected effect upon sperm motility |
| Cl.Cl.Nc1nc(-c2ccc(Cl)c(Cl)c2)c(-c2ccncc2)s1 [CGH 2466 dihydrochloride] | – | (X) | – |
| CCCCCC[C@@H]([C@@H](C)O)n1cnc2c(N)ncnc21.Cl [EHNA hydrochloride] | – | (X) | – |
| CC(C)C(=O)c1c(C(C)C)nn2ccccc12 [Ibudilast, 2-methyl-1-(2-propan-2-ylpyrazolo[1,5-a]pyridin-3-yl)propan-1-one] | best PDEI's to enhance sperm motility in a viscous solution | – | – |
| COc1cc2c(cc1OC)-c1c/c(=N\c3c(C)cc(C)cc3C)n(C)c(=O)n1CC2 [Trequinsin hydrochloride] | – | – | Effect on Sperm Motility: Strong (human sperm motility): (X) |
| CCOC(=O)C1=C[C@]2(CC)CCCN3CCc4c(n1c1ccccc41)[C@@H]32 [Vinpocetine] | – | (X) | – |
| Cc1ccc([N+](=O)[O-])cc1S(=O)(=O)N(C)C [BRL 50481] | – | (X) | – |
| CN(C(=O)CCCOc1ccc2[nH]c(=O)ccc2c1)C1CCCCC1 [Cilostamide] | – | – | Effect on Sperm Motility: Strong (human sperm motility): (X) |
| CCC1C(C)=NN=C(c2ccc(OC)c(OC)c2)c2cc(OC)c(OC)cc21 (centres unmarked) [Tofisopam, 1-(3,4-dimethoxyphenyl)-5-ethyl-7,8-dimethoxy-4-methyl-5H-2,3-benzodiazepine] | best PDEI's to enhance sperm motility in a viscous solution | – | effect upon sperm motility (human sperm motility): greater than expected effect upon sperm motility |
